From patent US5281604A, “Angiotensin II receptor blocking 2,3,6-substituted quinazolinones” (American Cyanamid Company, priority 1993, dated 1994)
Several values for one entry are separate records, joined by “and”; a condition that tells them apart may be missing. Equal entries are not always repeated.

Test system: ANGIOTENSIN II (AII) VASOPRESSOR RESPONSE
Experiment: AII Challenge: blockade of the angiotensin II vasopressor response in conscious spontaneously hypertensive rats
Assay type: in vivo, rat (Male Okamoto-Aoki SHR)
Excerpt: By administering a compound of this invention to a rat, and then challenging with angiotensin II, a blockage of the vasopressor response is realized.
Conscious Male Okamoto-Aoki SHR, 16-20 weeks old, weighing approximately 330 g are purchased from Charles River Labs (Wilmington, Mass.). Conscious rats are restrained in a supine position with elastic tape. The area at the base of the tail is locally anesthetized by subcutaneous infiltration with 2% procaine. The ventral caudal artery and vein are isolated, and a cannula made of polyethylene (PE) 10-20 tubing (fused together by heat) is passed into the lower abdominal aorta and vena cava, respectively. The cannula is secured, heparinized (1,000 I.U./ml), sealed and the wound is closed. The animals are placed in plastic restraining cages in an upright position. The cannula is attached to a Statham P23Db pressure transducer, and pulsatile blood pressure is recorded to 10-15 minutes with a Gould Brush recorder. (Chan et al., (Drug Development Res., 18:75-94, 1989).
Angiotensin II (human sequence, Sigma Chem. Co., St. Louis, Mo.) of 0.05 and 0.1 ug/kg i.v. is injected into all rats (predosing response). Then a test compound, vehicle or a known angiotensin II antagonist is administered i.v., i.p. or orally to each set of rats. The two doses of angiotensin II are given to each rat again at 30, 60, 90, 120, 180, 240 and 300 minutes post dosing the compound or vehicle. The vasopressor response of angiotensin II is measured for the increase in systolic blood pressure in mmHg. The percentage of antagonism or blockade of the vasopressor response of angiotensin II by a compound is calculated using the vasopressor response (increase in systolic blood pressure) of angiotensin II of each rat predosing the compound as 100%. A compound is considered active if at 30 mg/kg i.v. it antagonized at least 50% of the response.

[1] = 3 mg/kg i.v., AII 0.05 mcg/kg IV, 30 min post dose
[2] = 3 mg/kg i.v., AII 0.05 mcg/kg IV, 60 min post dose
[3] = 3 mg/kg i.v., AII 0.05 mcg/kg IV, 90 min post dose
[4] = 3 mg/kg i.v., AII 0.05 mcg/kg IV, 120 min post dose
[5] = 3 mg/kg i.v., AII 0.05 mcg/kg IV, 180 min post dose
[6] = 3 mg/kg i.v., AII 0.05 mcg/kg IV, 240 min post dose
[7] = 3 mg/kg i.v., AII 0.05 mcg/kg IV, 300 min post dose
[8] = 3 mg/kg i.v., AII 0.1 mcg/kg IV, 30 min post dose
[9] = 3 mg/kg i.v., AII 0.1 mcg/kg IV, 60 min post dose
[10] = 3 mg/kg i.v., AII 0.1 mcg/kg IV, 90 min post dose
[11] = 3 mg/kg i.v., AII 0.1 mcg/kg IV, 120 min post dose
[12] = 3 mg/kg i.v., AII 0.1 mcg/kg IV, 180 min post dose
[13] = 3 mg/kg i.v., AII 0.1 mcg/kg IV, 240 min post dose
[14] = 3 mg/kg i.v., AII 0.1 mcg/kg IV, 300 min post dose
[15] = 3 mg/kg p.o., AII 0.05 mcg/kg IV, 30 min post dose
[16] = 3 mg/kg p.o., AII 0.05 mcg/kg IV, 60 min post dose
[17] = 3 mg/kg p.o., AII 0.05 mcg/kg IV, 90 min post dose
[18] = 3 mg/kg p.o., AII 0.05 mcg/kg IV, 120 min post dose
[19] = 3 mg/kg p.o., AII 0.05 mcg/kg IV, 180 min post dose
[20] = 3 mg/kg p.o., AII 0.05 mcg/kg IV, 240 min post dose
[21] = 3 mg/kg p.o., AII 0.1 mcg/kg IV, 30 min post dose
[22] = 3 mg/kg p.o., AII 0.1 mcg/kg IV, 60 min post dose
[23] = 3 mg/kg p.o., AII 0.1 mcg/kg IV, 90 min post dose
[24] = 3 mg/kg p.o., AII 0.1 mcg/kg IV, 120 min post dose
[25] = 3 mg/kg p.o., AII 0.1 mcg/kg IV, 180 min post dose
[26] = 3 mg/kg p.o., AII 0.1 mcg/kg IV, 240 min post dose

CCCCc1nc2ccc([C@H]3OC[C@H]4[C@@H]3ON3[C@@H]4CCC3(C)C)cc2c(=O)n1Cc1ccc(-c2ccccc2-c2nnn[nH]2)cc1 (relative stereo) [Example 7, (1α, 3aα, 8aβ, 8bα)-2-Butyl-6-(octahydro-6,6-dimethylfuro[3,4-d]pyrrolo[1,2-b]isoxazol-1-yl)-3-[[2'-(1H-tetrazol-5-yl)[1,1'-biphenyl]-4-yl]methyl]-4 (3H)-quinazolinone]
% Inhibition [1]: 91% | Average Change [1]: 4.5 mmHg | Control Before AII (single rat) [1]: 245 mmHg and 214 mmHg | Response After AII (single rat) [1]: 245 mmHg and 223 mmHg | Response Change (single rat) [1]: 0 mmHg and 9 mmHg | % Inhibition [2]: 84% | Average Change [2]: 7.5 mmHg | Control Before AII (single rat) [2]: 240 mmHg and 225 mmHg | Response After AII (single rat) [2]: 255 mmHg and 225 mmHg | Response Change (single rat) [2]: 15 mmHg and 0 mmHg | % Inhibition [3]: 89% | Average Change [3]: 5 mmHg | Control Before AII (single rat) [3]: 235 mmHg | Response After AII (single rat) [3]: 240 mmHg | Response Change (single rat) [3]: 5 mmHg | % Inhibition [4]: 84% | Average Change [4]: 7.5 mmHg | Control Before AII (single rat) [4]: 225 mmHg and 220 mmHg | Response After AII (single rat) [4]: 235 mmHg and 225 mmHg | Response Change (single rat) [4]: 10 mmHg and 5 mmHg | % Inhibition [5]: 79% | Average Change [5]: 10 mmHg | Control Before AII (single rat) [5]: 225 mmHg and 215 mmHg | Response After AII (single rat) [5]: 235 mmHg and 225 mmHg | Response Change (single rat) [5]: 10 mmHg | % Inhibition [6]: 63% | Average Change [6]: 17.5 mmHg | Control Before AII (single rat) [6]: 225 mmHg and 215 mmHg | Response After AII (single rat) [6]: 235 mmHg and 240 mmHg | Response Change (single rat) [6]: 10 mmHg and 25 mmHg | % Inhibition [7]: 74% | Average Change [7]: 12.5 mmHg | Control Before AII (single rat) [7]: 235 mmHg and 210 mmHg | Response After AII (single rat) [7]: 242 mmHg and 228 mmHg | Response Change (single rat) [7]: 7 mmHg and 18 mmHg | % Inhibition [8]: 90% | Average Change [8]: 5 mmHg | Control Before AII (single rat) [8]: 255 mmHg and 220 mmHg | Response After AII (single rat) [8]: 260 mmHg and 225 mmHg | Response Change (single rat) [8]: 5 mmHg | % Inhibition [9]: 86% | Average Change [9]: 7.5 mmHg | Control Before AII (single rat) [9]: 250 mmHg and 215 mmHg | Response After AII (single rat) [9]: 255 mmHg and 225 mmHg | Response Change (single rat) [9]: 5 mmHg and 10 mmHg | % Inhibition [10]: 83% | Average Change [10]: 9 mmHg | Control Before AII (single rat) [10]: 235 mmHg and 225 mmHg | Response After AII (single rat) [10]: 238 mmHg and 240 mmHg | Response Change (single rat) [10]: 3 mmHg and 15 mmHg | % Inhibition [11]: 86% | Average Change [11]: 7.5 mmHg | Control Before AII (single rat) [11]: 235 mmHg and 215 mmHg | Response After AII (single rat) [11]: 240 mmHg and 225 mmHg | Response Change (single rat) [11]: 5 mmHg and 10 mmHg | % Inhibition [12]: 72% | Average Change [12]: 14.5 mmHg | Control Before AII (single rat) [12]: 235 mmHg and 205 mmHg | Response After AII (single rat) [12]: 245 mmHg and 224 mmHg | Response Change (single rat) [12]: 10 mmHg and 19 mmHg | % Inhibition [13]: 81% | Average Change [13]: 10 mmHg | Control Before AII (single rat) [13]: 235 mmHg and 225 mmHg | Response After AII (single rat) [13]: 245 mmHg and 235 mmHg | Response Change (single rat) [13]: 10 mmHg | % Inhibition [14]: 57% | Average Change [14]: 22.5 mmHg | Control Before AII (single rat) [14]: 230 mmHg and 215 mmHg | Response After AII (single rat) [14]: 250 mmHg and 240 mmHg | Response Change (single rat) [14]: 20 mmHg and 25 mmHg | % Inhibition [15]: 23% | Average Change [15]: 29 mmHg | Control Before AII (single rat) [15]: 215 mmHg and 205 mmHg | Response After AII (single rat) [15]: 248 mmHg and 230 mmHg | Response Change (single rat) [15]: 33 mmHg and 25 mmHg | % Inhibition [16]: 27% | Average Change [16]: 27.5 mmHg | Control Before AII (single rat) [16]: 230 mmHg and 195 mmHg | Response After AII (single rat) [16]: 255 mmHg and 225 mmHg | Response Change (single rat) [16]: 25 mmHg and 30 mmHg | % Inhibition [17]: 31% | Average Change [17]: 26 mmHg | Control Before AII (single rat) [17]: 210 mmHg and 193 mmHg | Response After AII (single rat) [17]: 245 mmHg and 210 mmHg | Response Change (single rat) [17]: 35 mmHg and 17 mmHg | % Inhibition [18]: 27% | Average Change [18]: 27.5 mmHg | Control Before AII (single rat) [18]: 210 mmHg and 195 mmHg | Response After AII (single rat) [18]: 245 mmHg and 215 mmHg | Response Change (single rat) [18]: 35 mmHg and 20 mmHg | % Inhibition [19]: 0% | Average Change [19]: 37.5 mmHg | Control Before AII (single rat) [19]: 210 mmHg and 190 mmHg | Response After AII (single rat) [19]: 255 mmHg and 220 mmHg | Response Change (single rat) [19]: 45 mmHg and 30 mmHg | % Inhibition [20]: 0% | Average Change [20]: 37.5 mmHg | Control Before AII (single rat) [20]: 210 mmHg and 190 mmHg | Response After AII (single rat) [20]: 260 mmHg and 215 mmHg | Response Change (single rat) [20]: 50 mmHg and 25 mmHg | % Inhibition [21]: 6% | Average Change [21]: 40 mmHg | Control Before AII (single rat) [21]: 215 mmHg and 200 mmHg | Response After AII (single rat) [21]: 260 mmHg and 235 mmHg | Response Change (single rat) [21]: 45 mmHg and 35 mmHg | % Inhibition [22]: 6% | Average Change [22]: 40 mmHg | Control Before AII (single rat) [22]: 215 mmHg and 195 mmHg | Response After AII (single rat) [22]: 255 mmHg and 235 mmHg | Response Change (single rat) [22]: 40 mmHg | % Inhibition [23]: 18% | Average Change [23]: 35 mmHg | Control Before AII (single rat) [23]: 215 mmHg and 195 mmHg | Response After AII (single rat) [23]: 260 mmHg and 220 mmHg | Response Change (single rat) [23]: 45 mmHg and 25 mmHg | % Inhibition [24]: 24% | Average Change [24]: 32.5 mmHg | Control Before AII (single rat) [24]: 205 mmHg and 190 mmHg | Response After AII (single rat) [24]: 240 mmHg and 220 mmHg | Response Change (single rat) [24]: 35 mmHg and 30 mmHg | % Inhibition [25]: 12% | Average Change [25]: 37.5 mmHg | Control Before AII (single rat) [25]: 215 mmHg and 180 mmHg | Response After AII (single rat) [25]: 260 mmHg and 210 mmHg | Response Change (single rat) [25]: 45 mmHg and 30 mmHg | % Inhibition [26]: 9% | Average Change [26]: 38.5 mmHg | Control Before AII (single rat) [26]: 213 mmHg and 185 mmHg | Response After AII (single rat) [26]: 265 mmHg and 210 mmHg | Response Change (single rat) [26]: 52 mmHg and 25 mmHg
